For one assay, the system named is P388. Kind of assay: In vivo antitumor activity against mouse P388 cells in mouse at 100 mg/kg relative to control. It counts as functional.
A further assay deals with KB. As to the kind of experiment: Cytotoxicity against human KB cells. The format is functional. Conditions: read-out: ED50 (the source's name).

For orientation: T/C means the ratio of treated to control.

Converted amounts (≈) assume the structure as drawn.

Compound `COc1cc2cc(c1Cl)NC(=O)C[C@H](OC(=O)[C@H](C)N(C)C(C)=O)[C@]1(C)O[C@H]1[C@H](C)[C@@H]1C[C@@](O)(NC(=O)O1)[C@H](OC)/C=C/C=C(\C)C2` [NORMAYTANSINE] had a T/C in the assay on P388 of 181%. Besides, the EC50 in the assay with KB was 1 ng/mL (≈ 1.47 nM).

Source of the values: ChEMBL document CHEMBL1151353, “Normaytansine, a new antileukemic ansa macrolide from Maytenus buchananii” (1980).
